# Measurements reported in PubChem BioAssay (NCI).
#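 In this assay, cells in 96-well plates receive the compound at five concentrations for 48 hours. Endpoints are linearly interpolated between the surrounding concentrations. Definition used: TGI = concentration required for complete inhibition of growth.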
# What was measured:
# Experiment in all cases: inhibition of tumour cell growth, NCI panel, 48 h
# [1] = tested on: 786-0 renal
# [2] = tested on: A498 renal
# [3] = tested on: A549 NSCLC
# [4] = tested on: ACHN renal
# [5] = tested on: CAKI-1 renal
# [6] = tested on: CCRF-CEM leukemia
# [7] = tested on: COLO 205 colon
# [8] = tested on: DLD-1 colon
# [9] = tested on: DMS 114 small cell lung
# [10] = tested on: DMS 273 small cell lung
# [11] = tested on: EKVX NSCLC
# [12] = tested on: HCC-2998 colon
# [13] = tested on: HCT-116 colon
# [14] = tested on: HL-60(TB) leukemia
# [15] = tested on: HOP-18 NSCLC
# [16] = tested on: HOP-62 NSCLC
# [17] = tested on: HOP-92 NSCLC
# [18] = tested on: HT29 colon
# [19] = tested on: IGROV1 ovarian
# [20] = tested on: K-562 leukemia
# [21] = tested on: KM12 colon
# [22] = tested on: KM20L2 colon
# [23] = tested on: LOX IMVI melanoma
# [24] = tested on: LXFL 529 NSCLC
# [25] = tested on: M14 melanoma
# [26] = tested on: M19-MEL melanoma
# [27] = tested on: MALME-3M melanoma
# [28] = tested on: MOLT-4 leukemia
# [29] = tested on: NCI-H226 lung
# [30] = tested on: NCI-H23 lung
# [31] = tested on: NCI-H460 lung
# [32] = tested on: NCI-H522 lung
# [33] = tested on: OVCAR-3 ovarian
# [34] = tested on: OVCAR-4 ovarian
# [35] = tested on: OVCAR-5 ovarian
# [36] = tested on: OVCAR-8 ovarian
# [37] = tested on: RXF 393 renal
# [38] = tested on: SF-268 CNS
# [39] = tested on: SF-295 CNS
# [40] = tested on: SF-539 CNS
# [41] = tested on: SK-MEL-2 melanoma
# [42] = tested on: SK-MEL-28 melanoma
# [43] = tested on: SK-MEL-5 melanoma
# [44] = tested on: SK-OV-3 ovarian
# [45] = tested on: SN12C renal
# [46] = tested on: SNB-19 CNS
# [47] = tested on: SNB-75 CNS
# [48] = tested on: SNB-78 CNS
# [49] = tested on: SR leukemia
# [50] = tested on: SW-620 colon
# [51] = tested on: TK-10 renal
# [52] = tested on: U251 CNS
# [53] = tested on: UACC-257 melanoma
# [54] = tested on: UACC-62 melanoma
# [55] = tested on: UO-31 renal
# [56] = tested on: XF 498 CNS
# [57] = tested on: HCT-15 colon
# [58] = tested on: RPMI-8226 leukemia
# [59] = tested on: RXF-631 renal
smiles,measurement,setting,value
CCOC(=O)NN(C(=O)OCC)C(C(=O)c1ccc(Cl)cc1)=C1NCCN1,TGI,[1],> 100 µM
same,TGI,[2],> 100 µM
same,TGI,[3],> 100 µM
same,TGI,[4],> 100 µM
same,TGI,[5],> 100 µM
same,TGI,[6],> 100 µM
same,TGI,[7],> 100 µM
same,TGI,[8],> 100 µM
same,TGI,[9],> 100 µM
same,TGI,[10],> 100 µM
same,TGI,[11],> 100 µM
same,TGI,[12],> 100 µM
same,TGI,[13],> 100 µM
same,TGI,[14],> 100 µM
same,TGI,[15],> 100 µM
same,TGI,[16],> 100 µM
same,TGI,[17],> 100 µM
same,TGI,[18],> 100 µM
same,TGI,[19],> 100 µM
same,TGI,[20],> 100 µM
same,TGI,[21],> 100 µM
same,TGI,[22],> 100 µM
same,TGI,[23],> 100 µM
same,TGI,[24],> 100 µM
same,TGI,[25],> 100 µM
same,TGI,[26],> 100 µM
same,TGI,[27],> 100 µM
same,TGI,[28],> 100 µM
same,TGI,[29],> 100 µM
same,TGI,[30],> 100 µM
same,TGI,[31],> 100 µM
same,TGI,[32],> 100 µM
same,TGI,[33],> 100 µM
same,TGI,[34],> 100 µM
same,TGI,[35],> 100 µM
same,TGI,[36],> 100 µM
same,TGI,[37],> 100 µM
same,TGI,[38],> 100 µM
same,TGI,[39],> 100 µM
same,TGI,[40],> 100 µM
same,TGI,[41],> 100 µM
same,TGI,[42],> 100 µM
same,TGI,[43],> 100 µM
same,TGI,[44],> 100 µM
same,TGI,[45],> 100 µM
same,TGI,[46],> 100 µM
same,TGI,[47],> 100 µM
same,TGI,[48],> 100 µM
same,TGI,[49],> 100 µM
same,TGI,[50],> 100 µM
same,TGI,[51],> 100 µM
same,TGI,[52],> 100 µM
same,TGI,[53],> 100 µM
same,TGI,[54],> 100 µM
same,TGI,[55],> 100 µM
same,TGI,[56],> 100 µM
COc1cc2c3c(c1OCc1ccccc1)NCCC3NCC2 (stereo not drawn),TGI,[1],> 100 µM
same,TGI,[2],> 100 µM
same,TGI,[3],> 100 µM
same,TGI,[5],> 100 µM
same,TGI,[6],> 100 µM
same,TGI,[7],> 100 µM
same,TGI,[8],> 100 µM
same,TGI,[9],> 100 µM
same,TGI,[10],> 100 µM
same,TGI,[11],> 100 µM
same,TGI,[12],> 100 µM
same,TGI,[13],> 100 µM
same,TGI,[57],> 100 µM
same,TGI,[14],> 100 µM
same,TGI,[16],> 100 µM
same,TGI,[17],> 100 µM
same,TGI,[18],> 100 µM
same,TGI,[19],> 100 µM
same,TGI,[20],> 100 µM
same,TGI,[21],> 100 µM
same,TGI,[22],> 100 µM
same,TGI,[23],> 100 µM
same,TGI,[24],> 100 µM
same,TGI,[25],> 100 µM
same,TGI,[26],> 100 µM
same,TGI,[27],> 100 µM
same,TGI,[28],> 100 µM
same,TGI,[29],> 100 µM
same,TGI,[30],> 100 µM
same,TGI,[31],> 100 µM
same,TGI,[32],> 100 µM
same,TGI,[33],> 100 µM
same,TGI,[34],> 100 µM
same,TGI,[35],> 100 µM
same,TGI,[36],> 100 µM
same,TGI,[58],> 100 µM
same,TGI,[37],> 100 µM
same,TGI,[59],> 100 µM
same,TGI,[38],> 100 µM
same,TGI,[39],> 100 µM
same,TGI,[40],> 100 µM
same,TGI,[43],> 100 µM
same,TGI,[45],> 100 µM
same,TGI,[46],> 100 µM
same,TGI,[47],> 100 µM
same,TGI,[48],> 100 µM
same,TGI,[49],> 100 µM
same,TGI,[50],> 100 µM
same,TGI,[51],> 100 µM
same,TGI,[52],> 100 µM
same,TGI,[53],> 100 µM
same,TGI,[54],> 100 µM
same,TGI,[55],> 100 µM
same,TGI,[56],> 100 µM
O=C1C2C3CCC(C2C(=O)N1CO)C1C2C(=O)N(CO)C(=O)C2C31 (stereo not drawn),TGI,[1],> 61.3 µM
same,TGI,[2],> 100 µM
same,TGI,[3],> 67.6 µM
same,TGI,[4],> 63 µM
same,TGI,[5],> 100 µM
same,TGI,[6],48.2 µM
same,TGI,[7],> 59.6 µM
same,TGI,[8],> 65.6 µM
same,TGI,[9],> 59.5 µM
same,TGI,[10],> 58.1 µM
same,TGI,[11],> 100 µM
same,TGI,[12],> 100 µM
same,TGI,[13],> 54.2 µM
same,TGI,[57],> 60.4 µM
same,TGI,[14],31.1 µM
same,TGI,[15],34.2 µM
same,TGI,[16],> 100 µM
same,TGI,[17],> 100 µM
same,TGI,[18],> 100 µM
same,TGI,[19],> 100 µM
same,TGI,[20],> 75.2 µM
same,TGI,[21],> 100 µM
same,TGI,[22],> 79.8 µM
same,TGI,[23],> 61.9 µM
same,TGI,[24],> 100 µM
same,TGI,[25],> 100 µM
same,TGI,[26],> 100 µM
same,TGI,[27],> 100 µM
same,TGI,[28],67.7 µM
same,TGI,[29],> 100 µM
same,TGI,[30],> 100 µM
same,TGI,[31],> 54.5 µM
same,TGI,[32],> 100 µM
same,TGI,[33],> 100 µM
same,TGI,[34],> 58.8 µM
same,TGI,[35],> 100 µM
same,TGI,[36],> 67.6 µM
same,TGI,[58],47.7 µM
same,TGI,[37],> 68.6 µM
same,TGI,[38],> 86.3 µM
same,TGI,[39],> 100 µM
same,TGI,[40],> 85.3 µM
same,TGI,[41],> 100 µM
same,TGI,[42],> 100 µM
same,TGI,[43],98.9 µM
same,TGI,[44],> 100 µM
same,TGI,[45],> 69.2 µM
same,TGI,[46],> 100 µM
same,TGI,[47],> 100 µM
same,TGI,[48],> 100 µM
same,TGI,[49],36.7 µM
same,TGI,[50],> 67.5 µM
same,TGI,[51],> 100 µM
same,TGI,[52],> 56.2 µM
same,TGI,[53],> 100 µM
same,TGI,[54],> 100 µM
same,TGI,[55],> 100 µM
same,TGI,[56],> 100 µM
